# Results from patent US12364702B2, “Highly active sting protein agonist compound” (ADLAI NORTYE BIOPHARMA CO., LTD., priority 2018, dated 2025).
# Where two headings read alike, the source gives them in different places.
# Experiments:
# Assay type in all cases: cell-based
# STING WT variant = target: T1, STING WT variant (Homo sapiens, UniProt Q86WV6); assay: SEAP reporter assay in HEK-Blue ISG KO-STING cells transfected with STING WT variant (Method 1); conditions: 24 h, SEAP signal vs 0.5% DMSO
# T1 construct: host or cells: HEK-Blue ISG KO-STING cells (Invivogen, hkb-kostg)
# Source text: (§1) Activation of STING can be determined using a SEAP reporter assay in HEK-Blue™ ISG KO-STING cells (Invivogen, cat #hkb-kostg) transfected with plasmids expressing STING variants (WT & HAQ) (referred to WO2017/175147A1). STING variants (WT & HAQ) vector were constructed based on STING-232H vector (Origene, RC208418). GFP vector (VT2069) was bought from Youbio. The detailed protocol as follows: HEK-Blue™ ISG KO-STING cells were harvest and seeding into 96 well plate, the final cell number was 0.8×10^5 cells/well. Transfections were prepared using Lipofectamine 2000 (Invitrogen, Cat #11668-027) following the manufacturer's instructions (Lipo2000/DNA=1/10), 20 ul of transfection suspension containing 1 ng STING vector was added to cell culture plate and incubated at 37° C., 5% CO2 for 24 hours. After 24 hours' incubation, compounds were added at proper concentration, and the final DMSO concentration was 0.5%. After 24 h incubation, the supernatant was collected to detect SEAP signal using Great EscAPe SEAP chemiluminescence KIT (Clontech, cat #631738) and cells were collected to detect cell viability using CellTiter-Glo Luminescent Cell Viability Assay (Promega, cat #G7573) following the manufacturer's instructions. The data were described by the ratio of the stimulating signal of compounds to 0.5% DMSO.
# STING HAQ variant = target: T2, STING HAQ variant (Homo sapiens, UniProt Q86WV6, G230A/R293Q/R71H); assay: SEAP reporter assay in HEK-Blue ISG KO-STING cells transfected with STING HAQ variant (Method 1); conditions: 24 h, SEAP signal vs 0.5% DMSO
# T2 construct: host or cells: HEK-Blue ISG KO-STING cells (Invivogen, hkb-kostg)
# Source text: as §1
# STING = STING (Homo sapiens, UniProt Q86WV6); assay: IFN-β secretion from THP1 by STING activation (hIFNβ ELISA)
# Description: In this assay, activation of STING by compounds was evaluated by detecting their ability to stimulate the secretion of IFN-β (interferon-beta) from THP1. THP1 was purchased from National Collection of Authenticated Cell Cultures (Cat #TCHu 57). The top dose of compounds was setted according to their solubility. First, Compounds were 3 times diluted with medium, 8-dose points in total. The final DMSO concentration was 0.2%. THP1 during the logarithmic phase was resuspended to 2×10^6 cells/ml in assay medium. The THP1-cell suspension was dispensed into a 96-well U bottom plate containing 50 ul of compound diluted in medium. After 24 h incubation at 37° C., 5% CO2, the supernatant was collected. The concentration of IFN-β in the supernatant was measured using a human IFNβ ELISA KIT (R&D, DY814-05). The data was fitted with GraphPad Prism or XLfit to calculate EC50 values.
# [1] = 1 ng STING vector, compound 2.5 uM
# [2] = 1 ng STING vector, compound 5 uM
# [3] = THP1 cells; 24 h incubation; IFN-β in supernatant; top dose set according to solubility; read-out: hIFNβ ELISA (EC50)
# [4] = THP1 cells; 24 h incubation; IFN-β in supernatant; top dose set according to solubility
# Sequence of STING (Q86WV6 whole entry): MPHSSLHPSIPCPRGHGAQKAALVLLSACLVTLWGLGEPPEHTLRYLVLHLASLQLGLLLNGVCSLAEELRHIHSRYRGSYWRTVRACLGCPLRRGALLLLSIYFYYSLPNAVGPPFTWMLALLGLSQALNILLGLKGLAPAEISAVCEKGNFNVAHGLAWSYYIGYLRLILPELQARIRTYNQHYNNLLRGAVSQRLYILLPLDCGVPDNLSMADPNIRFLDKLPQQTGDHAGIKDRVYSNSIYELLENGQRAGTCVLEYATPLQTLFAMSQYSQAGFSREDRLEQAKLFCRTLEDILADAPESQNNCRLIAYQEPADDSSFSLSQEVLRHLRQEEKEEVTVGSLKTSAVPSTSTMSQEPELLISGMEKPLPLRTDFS
# T2 sequence (Q86WV6 whole entry R71H/G230A/R293Q): as the sequence (Q86WV6 whole entry) above, with R71H, G230A, R293Q counted along it
SMILES,Fold change related to DMSO control WT (STING WT variant; [1]),Fold change related to DMSO control HAQ (STING HAQ variant; [2]),EC50 (STING; [3]),other results
"CCn1nc(C)cc1C(=O)Nc1nc2cc(C(N)=O)cc(OCCNC)c2n1CCC[C@H]1COc2cc(C(N)=O)cc3nc(NC(=O)c4cc(C)nn4CC)n1c23 [Example 16, (S)-3-(3-(5-carbamoyl-2-(1-ethyl-3-methyl-1H-pyrazole-5-carboxamido)-7-(2-(methylamino)ethoxy)-1H-benzo[d]imidazol-1-yl)propyl)-2-(1-ethyl-3-methyl-1H-pyrazole-5-carboxamido)-3,4-dihydro-5-oxa-1,2a-diazaacenaphthylene-7-carboxamide]",2.07,20.47,> 17.9 µM,–
"CCn1nc(C)cc1C(=O)Nc1nc2cc(C(N)=O)cc(OCCCNC(=O)CN(C)C)c2n1CCC[C@H]1COc2cc(C(N)=O)cc3nc(NC(=O)c4cc(C)nn4CC)n1c23 [Example 20, (S)-3-(3-(5-carbamoyl-7-(3-(2-(dimethylamino)acetamido)propoxy)-2-(1-ethyl-3-methyl-1H-pyrazole-5-carboxamido)-1H-benzo[d]imidazol-1-yl)propyl)-2-(1-ethyl-3-methyl-1H-pyrazole-5-carboxamido)-3,4-dihydro-5-oxa-1,2a-diazaacenaphthylene-7-carboxamide]",2.63,41.58,11.4 µM,–
"CCn1nc(C)cc1C(=O)Nc1nc2cc(C(N)=O)cc(OCCCNC(=O)CN3CCNCC3)c2n1CCC[C@H]1COc2cc(C(N)=O)cc3nc(NC(=O)c4cc(C)nn4CC)n1c23 [Example 34, (S)-3-(3-(6-carbamoyl-2-(1-ethyl-3-methyl-1H-pyrazole-5-carboxamido)-4-(3-(2-(piperazin-1-yl)acetamido)propoxy)-1H-benzo[d]imidazol-1-yl)propyl)-2-(1-ethyl-3-methyl-1H-pyrazole-5-carboxamido)-3,4-dihydro-5-oxa-1,2a-diazaacenaphthylene-7-carboxamide]",1.51,6.51,9.1 µM,–
"CCn1nc(C)cc1C(=O)Nc1nc2cc(C(N)=O)cc(OCCCNC)c2n1CCC[C@H]1COc2cc(C(N)=O)cc3nc(NC(=O)c4cc(C)nn4CC)n1c23.Cl [Example 17, (S)-3-(3-(5-carbamoyl-2-(1-ethyl-3-methyl-1H-pyrazole-5-carboxamido)-7-(3-(methylamino)propoxy)-1H-benzo[d]imidazol-1-yl)propyl)-2-(1-ethyl-3-methyl-1H-pyrazole-5-carboxamido)-3,4-dihydro-5-oxa-1,2a-diazaacenaphthylene-7-carboxamide Hydrochloride]",2.35,33.85,–,EC50 (STING; read-out: hIFNβ ELISA (EC50); THP1 cells; 24 h incubation; IFN-β in supernatant; top dose set according to solubility): 9.8 µM
"CCn1nc(C)cc1C(=O)Nc1nc2cc(C(N)=O)cc(OCCCOC)c2n1CC[C@H]1COc2cc(C(N)=O)cc3nc(NC(=O)c4cc(C)nn4CC)n1c23 [Example 7, (S)-3-(2-(5-carbamoyl-2-(1-ethyl-3-methyl-1H-pyrazole-5-carboxamido)-7-(3-methoxypropoxy)-1H-benzo[d]imidazol-1-yl)ethyl)-2-(1-ethyl-3-methyl-1H-pyrazole-5-carboxamido)-3,4-dihydro-5-oxa-1,2a-diazaacenaphthylene-7-carboxamide]",–,–,–,"Fold change related to DMSO control WT (STING WT variant; compound 80.2 uM): 1.96; Fold change related to DMSO control HAQ (STING HAQ variant; compound 80.2 uM): 20.29; hIFNβ ELISA (EC50, μM) (STING; [4]): inactive"
"CCn1nc(C)cc1C(=O)Nc1nc2cc(C(N)=O)cc(OCCCNC(=O)CN3CCOCC3)c2n1CCC[C@H]1COc2cc(C(N)=O)cc3nc(NC(=O)c4cc(C)nn4CC)n1c23 [Example 21, (S)-3-(3-(5-carbamoyl-2-(1-ethyl-3-methyl-1H-pyrazole-5-carboxamido)-7-(3-(2-morpholinoacetamido)propoxy)-1H-benzo[d]imidazol-1-yl)propyl)-2-(1-ethyl-3-methyl-1H-pyrazole-5-carboxamido)-3,4-dihydro-5-oxa-1,2a-diazaacenaphthylene-7-carboxamide]",2.38,40.44,1.4 µM,–
"CCn1nc(C)cc1C(=O)Nc1nc2cc(C(N)=O)cc(OCCCCNC)c2n1CCC[C@H]1COc2cc(C(N)=O)cc3nc(NC(=O)c4cc(C)nn4CC)n1c23 [Example 23, (S)-3-(3-(5-carbamoyl-2-(1-ethyl-3-methyl-1H-pyrazole-5-carboxamido)-7-(4-(methylamino)butoxy)-1H-benzo[d]imidazol-1-yl)propyl)-2-(1-ethyl-3-methyl-1H-pyrazole-5-carboxamido)-3,4-dihydro-5-oxa-1,2a-diazaacenaphthylene-7-carboxamide]",2.82,38.85,1.1 µM,–
CCn1nc(C)cc1C(=O)Nc1nc2cc(C(N)=O)cc(OCCCNC(=O)C[C@H]3COCCN3)c2n1CCC[C@H]1COc2cc(C(N)=O)cc3nc(NC(=O)c4cc(C)nn4CC)n1c23 [Example 33],1.88,16.31,12 µM,–
"CCn1nc(C)cc1C(=O)Nc1nc2cc(C(N)=O)cc(OCCCOC)c2n1CCC[C@@H]1COc2cc(C(N)=O)cc3nc(NC(=O)c4cc(C)nn4CC)n1c23 [Example 2, (R)-3-(3-(5-Carbamoyl-2-(1-ethyl-3-methyl-1H-pyrazole-5-carboxamido)-7-(3-methoxypropoxy)-1H-benzo[d]imidazol-1-yl)propyl)-2-(1-ethyl-3-methyl-1H-pyrazole-5-carboxamido)-3,4-dihydro-5-oxa-1,2a-diazaacenaphthylene-7-carboxamide]",–,–,–,"Fold change related to DMSO control WT (STING WT variant; compound 15.65 uM): 1.99; Fold change related to DMSO control HAQ (STING HAQ variant; compound 15.65 uM): 2.52; hIFNβ ELISA (EC50, μM) (STING; [4]): inactive"
"CCn1nc(C)c(Br)c1C(=O)Nc1nc2cc(C(N)=O)cc3c2n1[C@@H](CCCn1c(NC(=O)c2cc(C)nn2CCF)nc2cc(C(N)=O)cc(OCCCOC)c21)CO3 [Example 13, (S)-2-(4-bromo-1-ethyl-3-methyl-1H-pyrazole-5-carboxamido)-3-(3-(5-carbamoyl-2-(1-(2-fluoroethyl)-3-methyl-1H-pyrazole-5-carboxamido)-7-(3-methoxypropoxy)-1H-benzo[d]imidazol-1-yl)propyl)-3,4-dihydro-5-oxa-1,2a-diazaacenaphthylene-7-carboxamide]",1.79,26.64,> 3 µM,–
"CCn1nc(C)cc1C(=O)Nc1nc2cc(C(N)=O)cc(OCCCN(C)C)c2n1CCC[C@H]1COc2cc(C(N)=O)cc3nc(NC(=O)c4cc(C)nn4CC)n1c23 [Example 18, (S)-3-(3-(5-carbamoyl-7-(3-(dimethylamino)propoxy)-2-(1-ethyl-3-methyl-1H-pyrazole-5-carboxamido)-1H-benzo[d]imidazol-1-yl)propyl)-2-(1-ethyl-3-methyl-1H-pyrazole-5-carboxamido)-3,4-dihydro-5-oxa-1,2a-diazaacenaphthylene-7-carboxamide]",2.64,40.66,18.2 µM,–
